Experimental data: ChEMBL document CHEMBL3885881, “DrugMatrix”

Organism: Rattus norvegicus
Assay: DrugMatrix - Regimen: Daily Repeat
Type: toxicity, organism-based, Sprague-Dawley
Parameters: regimen Daily Repeat, gender Male, age 6-8 weeks
Details: in vivo, po, route oral GAVAGE, vehicle 100 % WATER; for ABSOLUTE BASOPHIL / ABSOLUTE EOSINOPHIL / ABSOLUTE LYMPHOCYTE / ABSOLUTE MONOCYTE / ABSOLUTE SEGMENTED NEUTROPHIL / BASOPHIL / EOSINOPHIL / ERYTHROCYTE COUNT / HEMATOCRIT / HEMOGLOBIN / LEUKOCYTE COUNT / LYMPHOCYTE / MEAN CORPUSCULAR HEMOGLOBIN / MEAN CORPUSCULAR HEMOGLOBIN CONCENTRATION / MEAN CORPUSCULAR VOLUME / MONOCYTE / NEUTROPHIL / NUCLEATED RED BLOOD CELLS / PLATELET COUNT: tissue Blood; for ALANINE AMINOTRANSFERASE / ALBUMIN / ALKALINE PHOSPHATASE / ASPARTATE AMINOTRANSFERASE / BLOOD UREA NITROGEN / CARBON DIOXIDE / CHLORIDE / CHOLESTEROL / CREATINE PHOSPHOKINASE / CREATININE / GLUCOSE / LACTATE DEHYDROGENASE / LIPASE / PHOSPHORUS / POTASSIUM / SODIUM / TOTAL BILIRUBIN / TOTAL PROTEIN / URIC ACID: tissue Plasma
[1] = 11 mg/kg, 120 h, dose level Low, time 5 day
[2] = 1100 mg/kg, 72 h, dose level High, time 3 day
[3] = 1100 mg/kg, 120 h, dose level High, time 5 day

CNS(=O)(=O)Cc1ccc2[nH]cc(CCN(C)C)c2c1
ABSOLUTE BASOPHIL [1]: 0 CELLS/uL | ABSOLUTE EOSINOPHIL [1]: 33.33 CELLS/uL | ABSOLUTE LYMPHOCYTE [1]: 13548.33 CELLS/uL | ABSOLUTE MONOCYTE [1]: 177 CELLS/uL | ABSOLUTE SEGMENTED NEUTROPHIL [1]: 608 CELLS/uL | BASOPHIL [1]: 0% | EOSINOPHIL [1]: 0.33% | ERYTHROCYTE COUNT [1]: 5.94 x10E6/uL | HEMATOCRIT [1]: 38.1% | HEMOGLOBIN [1]: 14.67 G/DL | LEUKOCYTE COUNT [1]: 14.37 x10E3/uL | LYMPHOCYTE [1]: 94% | MEAN CORPUSCULAR HEMOGLOBIN [1]: 24.67 pg | MEAN CORPUSCULAR HEMOGLOBIN CONCENTRATION [1]: 38.53 G/DL | MEAN CORPUSCULAR VOLUME [1]: 64.03 fL | MONOCYTE [1]: 1.33% | NEUTROPHIL [1]: 4.33% | NUCLEATED RED BLOOD CELLS [1]: 0 /100WBC | PLATELET COUNT [1]: 1140 x10E3/uL | ALANINE AMINOTRANSFERASE [1]: 51 u/L | ALBUMIN [1]: 4.23 G/DL | ALKALINE PHOSPHATASE [1]: 398.33 u/L | ASPARTATE AMINOTRANSFERASE [1]: 85.33 u/L | BLOOD UREA NITROGEN [1]: 15.67 mg/dL | CARBON DIOXIDE [1]: 31.67 mmol/L | CHLORIDE [1]: 101.67 MEQ/L | CHOLESTEROL [1]: 66 mg/dL | CREATINE PHOSPHOKINASE [1]: 235 u/L | CREATININE [1]: 0.17 mg/dL | GLUCOSE [1]: 139.67 mg/dL | LACTATE DEHYDROGENASE [1]: 145 u/L | LIPASE [1]: 10.33 u/L | PHOSPHORUS [1]: 11.03 mg/dL | POTASSIUM [1]: 6.19 MEQ/L | SODIUM [1]: 146.47 MEQ/L | TOTAL BILIRUBIN [1]: 0.17 mg/dL | TOTAL PROTEIN [1]: 6.37 G/DL | URIC ACID [1]: 0.83 mg/dL | ABSOLUTE BASOPHIL [2]: 0 CELLS/uL | ABSOLUTE EOSINOPHIL [2]: 0 CELLS/uL | ABSOLUTE LYMPHOCYTE [2]: 8603 CELLS/uL | ABSOLUTE MONOCYTE [2]: 74.33 CELLS/uL | ABSOLUTE SEGMENTED NEUTROPHIL [2]: 922.67 CELLS/uL | BASOPHIL [2]: 0% | EOSINOPHIL [2]: 0% | ERYTHROCYTE COUNT [2]: 5.83 x10E6/uL | HEMATOCRIT [2]: 35.8% | HEMOGLOBIN [2]: 13.87 G/DL | LEUKOCYTE COUNT [2]: 9.6 x10E3/uL | LYMPHOCYTE [2]: 89.67% | MEAN CORPUSCULAR HEMOGLOBIN [2]: 23.8 pg | MEAN CORPUSCULAR HEMOGLOBIN CONCENTRATION [2]: 38.73 G/DL | MEAN CORPUSCULAR VOLUME [2]: 61.43 fL | MONOCYTE [2]: 0.67% | NEUTROPHIL [2]: 9.67% | NUCLEATED RED BLOOD CELLS [2]: 0 /100WBC | PLATELET COUNT [2]: 1087.33 x10E3/uL | ALANINE AMINOTRANSFERASE [2]: 50.33 u/L | ALBUMIN [2]: 4.07 G/DL | ALKALINE PHOSPHATASE [2]: 367.67 u/L | ASPARTATE AMINOTRANSFERASE [2]: 86 u/L | BLOOD UREA NITROGEN [2]: 12.67 mg/dL | CARBON DIOXIDE [2]: 30 mmol/L | CHLORIDE [2]: 101.67 MEQ/L | CHOLESTEROL [2]: 70.33 mg/dL | CREATINE PHOSPHOKINASE [2]: 362.67 u/L | CREATININE [2]: 0.2 mg/dL | GLUCOSE [2]: 136.67 mg/dL | LACTATE DEHYDROGENASE [2]: 189.67 u/L | LIPASE [2]: 10.33 u/L | PHOSPHORUS [2]: 10.73 mg/dL | POTASSIUM [2]: 5.86 MEQ/L | SODIUM [2]: 145.13 MEQ/L | TOTAL BILIRUBIN [2]: 0.13 mg/dL | TOTAL PROTEIN [2]: 6.13 G/DL | URIC ACID [2]: 0.7 mg/dL | ABSOLUTE BASOPHIL [3]: 0 CELLS/uL | ABSOLUTE EOSINOPHIL [3]: 40.67 CELLS/uL | ABSOLUTE LYMPHOCYTE [3]: 8480 CELLS/uL | ABSOLUTE MONOCYTE [3]: 117.33 CELLS/uL | ABSOLUTE SEGMENTED NEUTROPHIL [3]: 862 CELLS/uL | BASOPHIL [3]: 0% | EOSINOPHIL [3]: 0.33% | ERYTHROCYTE COUNT [3]: 5.92 x10E6/uL | HEMATOCRIT [3]: 37.33% | HEMOGLOBIN [3]: 14.3 G/DL | LEUKOCYTE COUNT [3]: 9.5 x10E3/uL | LYMPHOCYTE [3]: 89.67% | MEAN CORPUSCULAR HEMOGLOBIN [3]: 24.2 pg | MEAN CORPUSCULAR HEMOGLOBIN CONCENTRATION [3]: 38.27 G/DL | MEAN CORPUSCULAR VOLUME [3]: 63.17 fL | MONOCYTE [3]: 1% | NEUTROPHIL [3]: 9% | NUCLEATED RED BLOOD CELLS [3]: 0 /100WBC | PLATELET COUNT [3]: 1190.33 x10E3/uL | ALANINE AMINOTRANSFERASE [3]: 47.67 u/L | ALBUMIN [3]: 4.07 G/DL | ALKALINE PHOSPHATASE [3]: 329 u/L | ASPARTATE AMINOTRANSFERASE [3]: 87.67 u/L | BLOOD UREA NITROGEN [3]: 15.67 mg/dL | CARBON DIOXIDE [3]: 31 mmol/L | CHLORIDE [3]: 100 MEQ/L | CHOLESTEROL [3]: 65.67 mg/dL | CREATINE PHOSPHOKINASE [3]: 337 u/L | CREATININE [3]: 0.17 mg/dL | GLUCOSE [3]: 135.33 mg/dL | LACTATE DEHYDROGENASE [3]: 119.67 u/L | LIPASE [3]: 10.33 u/L | PHOSPHORUS [3]: 9.67 mg/dL | POTASSIUM [3]: 6.24 MEQ/L | SODIUM [3]: 145.07 MEQ/L | TOTAL BILIRUBIN [3]: 0.2 mg/dL | TOTAL PROTEIN [3]: 6.2 G/DL | URIC ACID [3]: 0.83 mg/dL
